Test results reported in ChEMBL document CHEMBL4000185, “Pyrimidine-Based Inhibitors of Dynamin I GTPase Activity: Competitive Inhibition at the Pleckstrin Homology Domain” (J Med Chem, 2017).
Active and inactive are the calls of the source. The calls are words filed in the database; no cut-off is given here.

Experiments:
Ovis aries [1] = organism: Ovis aries; assay: Inhibition of phosphatidyl serine liposome-stimulated sheep brain dynamin 1 GTPase activity assessed as reduction orthophosphate release at 300 uM using GTP as substrate after 30 mins by malachite green reagent based colorimetric assay relative to control
[2] = target: T1, 5-hydroxytryptamine receptor 2B (Homo sapiens, UniProt P41595); assay: Displacement of [125I](+/-)DOI from human recombinant 5-HT2B receptor expressed in CHO cells after 60 mins by scintillation counting; type: cell-based
[3] = Inhibition of phosphatidyl serine liposome-stimulated sheep brain dynamin 1 GTPase activity assessed as reduction orthophosphate release using GTP as substrate after 30 mins by malachite green reagent based colorimetric assay; set-up: species or system Ovis aries; conditions: read-out: IC50
SW480 [4] = assay: Growth inhibition of human SW480 cells after 72 hrs by MTT assay; type: functional; conditions: SW480, 72 h
HT-29 [5] = assay: Growth inhibition of human HT-29 cells after 72 hrs by MTT assay; type: functional; conditions: HT-29, 72 h
[6] = Growth inhibition of human SMA cells after 72 hrs by MTT assay; type: functional
MCF7 [7] = assay: Growth inhibition of human MCF7 cells after 72 hrs by MTT assay; type: functional; conditions: MCF7, 72 h
BE(2)-C [8] = assay: Growth inhibition of human BE(2)-C cells after 72 hrs by MTT assay; type: functional
[9] = Growth inhibition of human SJ-G2 cells after 72 hrs by MTT assay; type: functional; conditions: SJ-G2, 72 h
MIA PaCa-2 [10] = assay: Growth inhibition of human MIAPaCa2 cells after 72 hrs by MTT assay; type: functional; conditions: MIA PaCa-2, 72 h
A2780 [11] = assay: Growth inhibition of human A2780 cells after 72 hrs by MTT assay; type: functional; conditions: A2780, 72 h
A-431 [12] = assay: Growth inhibition of human A431 cells after 72 hrs by MTT assay; type: functional; conditions: A-431, 72 h
NCI-H460 [13] = assay: Growth inhibition of human NCI-H460 cells after 72 hrs by MTT assay; type: functional; conditions: NCI-H460, 72 h
[14] = Growth inhibition of human U87 cells after 72 hrs by MTT assay; type: functional, U-87MG ATCC; conditions: U-87 MG
DU-145 [15] = assay: Growth inhibition of human DU145 cells after 72 hrs by MTT assay; type: functional; conditions: DU-145, 72 h
[16] = target: D(2) dopamine receptor (Homo sapiens) (UniProt P14416); assay: Displacement of [3H]methyl-spiperone from human recombinant D2S receptor in HEK293 cells at 10 uM after 60 mins by scintillation counting relative to control; type: cell-based; conditions: values are per cent of control
[17] = target: Histamine H1 receptor (Homo sapiens) (UniProt P35367); assay: Displacement of [3H]pyrilamine from human recombinant histamine H1 receptor in HEK293 cells at 10 uM after 60 mins by scintillation counting relative to control; type: cell-based; conditions: values are per cent of control
[18] = target: Histamine H2 receptor (Homo sapiens) (UniProt P25021); assay: Displacement of [125I]APT from human recombinant histamine H2 receptor expressed in CHO cells at 10 uM after 120 mins by scintillation counting relative to control; type: cell-based; conditions: values are per cent of control
[19] = target: Melanocortin receptor 4 (Homo sapiens) (UniProt P32245); assay: Inhibition of human recombinant melanocortin 4 receptor expressed in CHO cells at 10 uM relative to control; type: cell-based; conditions: values are per cent of control
[20] = target: Muscarinic acetylcholine receptor M1 (Homo sapiens) (UniProt P11229); assay: Displacement of [3H]pirenzepine from human recombinant Muscarinic acetylcholine receptor M1 expressed in CHO cells at 10 uM after 60 mins by scintillation counting relative to control; type: cell-based; conditions: values are per cent of control
[21] = target: Muscarinic acetylcholine receptor M3 (Homo sapiens) (UniProt P20309); assay: Displacement of [3H]4-DAMP from human recombinant Muscarinic acetylcholine receptor M3 expressed in CHO cells at 10 uM after 60 mins by scintillation counting relative to control; type: cell-based; conditions: values are per cent of control
[22] = target: Substance-K receptor (Homo sapiens) (UniProt P21452); assay: Displacement of [125I]NKA from human recombinant tachykinin NK2 receptor expressed in CHO cells at 10 uM after 60 mins by scintillation counting relative to control; type: cell-based; conditions: values are per cent of control
[23] = target: Kappa-type opioid receptor (Rattus norvegicus) (UniProt P34975); assay: Displacement of [3H]U 69593 from rat recombinant kappa opioid receptor expressed in CHO cells at 10 uM after 60 mins by scintillation counting relative to control; type: cell-based; conditions: values are per cent of control
[24] = target: 5-hydroxytryptamine receptor 2A (Homo sapiens) (UniProt P28223); assay: Displacement of [3H]ketanserin from human recombinant 5-HT2A receptor in HEK293 cells at 10 uM after 60 mins by scintillation counting relative to control; type: cell-based; conditions: values are per cent of control
[25] = target: T1, 5-hydroxytryptamine receptor 2B; assay: Displacement of [125I](+/-)DOI from human recombinant 5-HT2B receptor expressed in CHO cells at 10 uM after 60 mins by scintillation counting relative to control; type: cell-based; conditions: values are per cent of control
[26] = target: 5-hydroxytryptamine receptor 5A (Homo sapiens) (UniProt P47898); assay: Displacement of [3H]LSD from human recombinant 5-HT5a receptor in HEK293 cells at 10 uM after 120 mins by scintillation counting relative to control; type: cell-based; conditions: values are per cent of control
[27] = target: 5-hydroxytryptamine receptor 6 (Homo sapiens) (UniProt P50406); assay: Displacement of [3H]LSD from human recombinant 5-HT6 receptor expressed in CHO cells at 10 uM after 120 mins by scintillation counting relative to control; type: cell-based; conditions: values are per cent of control
[28] = target: 5-hydroxytryptamine receptor 7 (Homo sapiens) (UniProt P34969); assay: Displacement of [3H]LSD from human recombinant 5-HT7 receptor expressed in CHO cells at 10 uM after 120 mins by scintillation counting relative to control; type: cell-based; conditions: values are per cent of control
[29] = target: Sodium-dependent noradrenaline transporter (Homo sapiens) (UniProt P23975); assay: Displacement of [3H]nisoxetine from human recombinant norepinephrine transporter expressed in CHO cells at 10 uM after 120 mins by scintillation counting relative to control; type: cell-based; conditions: values are per cent of control
[30] = target: Sodium-dependent dopamine transporter (Homo sapiens) (UniProt Q01959); assay: Displacement of [3H]BTCP from human recombinant dopamine transporter expressed in CHO cells at 10 uM after 120 mins by scintillation counting relative to control; type: cell-based; conditions: values are per cent of control
SW480 [31] = assay: Growth inhibition of human SW480 cells assessed as cell death at 25 uM after 72 hrs by MTT assay relative to control; type: functional; set-up: scale not given: the % may be the effect or the level left
HT-29 [32] = assay: Growth inhibition of human HT-29 cells assessed as cell death at 25 uM after 72 hrs by MTT assay relative to control; type: functional; set-up: scale not given: the % may be the effect or the level left
[33] = Growth inhibition of human SMA cells assessed as cell death at 25 uM after 72 hrs by MTT assay relative to control; type: functional; set-up: scale not given: the % may be the effect or the level left
MCF7 [34] = assay: Growth inhibition of human MCF7 cells assessed as cell death at 25 uM after 72 hrs by MTT assay relative to control; type: functional; set-up: scale not given: the % may be the effect or the level left
BE(2)-C [35] = assay: Growth inhibition of human BE(2)-C cells assessed as cell death at 25 uM after 72 hrs by MTT assay relative to control; type: functional; set-up: scale not given: the % may be the effect or the level left
[36] = Growth inhibition of human SJ-G2 cells assessed as cell death at 25 uM after 72 hrs by MTT assay relative to control; type: functional; set-up: scale not given: the % may be the effect or the level left
MIA PaCa-2 [37] = assay: Growth inhibition of human MIAPaCa2 cells assessed as cell death at 25 uM after 72 hrs by MTT assay relative to control; type: functional; set-up: scale not given: the % may be the effect or the level left
A2780 [38] = assay: Growth inhibition of human A2780 cells assessed as cell death at 25 uM after 72 hrs by MTT assay relative to control; type: functional; set-up: scale not given: the % may be the effect or the level left
A-431 [39] = assay: Growth inhibition of human A431 cells assessed as cell death at 25 uM after 72 hrs by MTT assay relative to control; type: functional; set-up: scale not given: the % may be the effect or the level left
NCI-H460 [40] = assay: Growth inhibition of human NCI-H460 cells assessed as cell death at 25 uM after 72 hrs by MTT assay relative to control; type: functional; set-up: scale not given: the % may be the effect or the level left
[41] = Growth inhibition of human U87 cells assessed as cell death at 25 uM after 72 hrs by MTT assay relative to control; type: functional, U-87MG ATCC; set-up: scale not given: the % may be the effect or the level left
DU-145 [42] = assay: Growth inhibition of human DU145 cells assessed as cell death at 25 uM after 72 hrs by MTT assay relative to control; type: functional; set-up: scale not given: the % may be the effect or the level left
Ovis aries [43] = organism: Ovis aries; assay: Inhibition of phosphatidyl serine liposome-stimulated sheep brain dynamin 1 GTPase activity assessed as reduction orthophosphate release up to 300 uM using GTP as substrate after 30 mins by malachite green reagent based colorimetric assay relative to control

T1 sequence (P41595 whole entry): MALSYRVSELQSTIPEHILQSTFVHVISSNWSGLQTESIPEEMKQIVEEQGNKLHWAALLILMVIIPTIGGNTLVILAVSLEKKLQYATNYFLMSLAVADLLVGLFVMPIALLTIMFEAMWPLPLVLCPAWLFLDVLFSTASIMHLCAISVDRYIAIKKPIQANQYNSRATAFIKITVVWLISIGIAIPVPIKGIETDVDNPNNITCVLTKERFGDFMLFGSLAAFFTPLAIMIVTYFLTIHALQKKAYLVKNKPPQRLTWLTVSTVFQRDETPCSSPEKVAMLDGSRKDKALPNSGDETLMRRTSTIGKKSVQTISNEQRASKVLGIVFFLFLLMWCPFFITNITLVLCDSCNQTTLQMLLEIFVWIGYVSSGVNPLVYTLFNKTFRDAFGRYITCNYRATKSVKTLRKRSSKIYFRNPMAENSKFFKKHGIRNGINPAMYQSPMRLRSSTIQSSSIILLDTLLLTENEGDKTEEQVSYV
Sequence of Melanocortin receptor 4 (Homo sapiens) (P32245 whole entry): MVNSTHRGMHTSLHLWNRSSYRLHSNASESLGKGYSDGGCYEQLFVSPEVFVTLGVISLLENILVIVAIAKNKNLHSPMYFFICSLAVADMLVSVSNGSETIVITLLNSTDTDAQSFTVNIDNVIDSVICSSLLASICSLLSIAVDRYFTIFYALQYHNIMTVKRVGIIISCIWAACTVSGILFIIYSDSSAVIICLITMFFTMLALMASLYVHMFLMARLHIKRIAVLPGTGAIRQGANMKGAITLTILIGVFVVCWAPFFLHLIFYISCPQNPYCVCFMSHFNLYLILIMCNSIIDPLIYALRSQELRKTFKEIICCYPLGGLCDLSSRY
Sequence of Muscarinic acetylcholine receptor M1 (Homo sapiens) (P11229 whole entry): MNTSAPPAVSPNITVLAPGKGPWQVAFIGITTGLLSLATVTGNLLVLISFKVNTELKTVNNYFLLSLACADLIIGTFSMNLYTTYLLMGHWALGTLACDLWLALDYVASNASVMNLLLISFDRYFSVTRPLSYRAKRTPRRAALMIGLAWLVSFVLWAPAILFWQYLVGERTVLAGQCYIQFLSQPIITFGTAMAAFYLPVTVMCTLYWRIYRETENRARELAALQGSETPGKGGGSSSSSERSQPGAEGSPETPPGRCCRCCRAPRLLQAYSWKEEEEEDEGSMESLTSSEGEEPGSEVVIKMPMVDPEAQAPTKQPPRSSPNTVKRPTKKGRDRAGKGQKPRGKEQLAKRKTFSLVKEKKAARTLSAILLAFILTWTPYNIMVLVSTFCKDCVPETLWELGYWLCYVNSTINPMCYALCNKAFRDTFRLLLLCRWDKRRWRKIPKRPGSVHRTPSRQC
Sequence of Sodium-dependent dopamine transporter (Homo sapiens) (Q01959 whole entry): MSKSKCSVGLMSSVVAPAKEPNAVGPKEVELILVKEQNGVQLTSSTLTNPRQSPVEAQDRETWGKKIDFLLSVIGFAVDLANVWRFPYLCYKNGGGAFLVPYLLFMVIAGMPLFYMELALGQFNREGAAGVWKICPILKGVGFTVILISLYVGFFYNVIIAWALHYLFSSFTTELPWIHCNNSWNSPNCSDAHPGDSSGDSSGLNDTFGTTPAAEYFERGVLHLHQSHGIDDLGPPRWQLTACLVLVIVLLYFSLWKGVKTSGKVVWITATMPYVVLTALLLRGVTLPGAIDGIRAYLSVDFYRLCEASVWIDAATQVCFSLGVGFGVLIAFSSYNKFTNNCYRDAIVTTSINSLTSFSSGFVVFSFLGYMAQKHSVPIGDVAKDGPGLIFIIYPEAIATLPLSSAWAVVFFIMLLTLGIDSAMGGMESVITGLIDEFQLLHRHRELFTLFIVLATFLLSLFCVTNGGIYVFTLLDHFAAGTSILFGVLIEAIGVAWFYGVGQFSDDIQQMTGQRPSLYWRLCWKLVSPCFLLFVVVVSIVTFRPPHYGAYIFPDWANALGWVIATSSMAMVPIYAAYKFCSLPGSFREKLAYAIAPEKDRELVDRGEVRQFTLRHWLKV
Sequence of Histamine H1 receptor (Homo sapiens) (P35367 whole entry): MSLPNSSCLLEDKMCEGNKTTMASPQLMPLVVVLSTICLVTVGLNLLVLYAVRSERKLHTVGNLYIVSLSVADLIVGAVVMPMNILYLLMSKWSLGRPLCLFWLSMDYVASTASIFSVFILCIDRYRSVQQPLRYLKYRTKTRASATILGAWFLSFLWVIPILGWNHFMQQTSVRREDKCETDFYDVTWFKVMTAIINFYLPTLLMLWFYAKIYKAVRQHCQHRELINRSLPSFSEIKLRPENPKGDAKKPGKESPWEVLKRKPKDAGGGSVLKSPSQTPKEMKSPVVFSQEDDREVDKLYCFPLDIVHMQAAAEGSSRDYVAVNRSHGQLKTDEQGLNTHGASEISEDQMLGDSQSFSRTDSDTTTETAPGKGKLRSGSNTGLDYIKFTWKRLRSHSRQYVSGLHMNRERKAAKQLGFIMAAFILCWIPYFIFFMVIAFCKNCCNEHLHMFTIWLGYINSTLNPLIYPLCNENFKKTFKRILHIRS
Sequence of Substance-K receptor (Homo sapiens) (P21452 whole entry): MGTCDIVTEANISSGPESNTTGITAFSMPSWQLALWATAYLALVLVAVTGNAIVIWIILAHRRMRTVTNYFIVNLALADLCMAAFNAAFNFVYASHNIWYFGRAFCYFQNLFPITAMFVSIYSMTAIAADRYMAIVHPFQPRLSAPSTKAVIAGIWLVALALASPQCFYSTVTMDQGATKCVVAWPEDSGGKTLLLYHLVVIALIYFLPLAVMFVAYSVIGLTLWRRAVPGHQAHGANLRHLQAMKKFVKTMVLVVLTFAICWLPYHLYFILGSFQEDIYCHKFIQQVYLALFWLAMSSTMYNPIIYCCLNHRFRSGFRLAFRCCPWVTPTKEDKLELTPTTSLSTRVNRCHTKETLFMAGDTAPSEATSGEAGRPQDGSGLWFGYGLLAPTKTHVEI
Sequence of Sodium-dependent noradrenaline transporter (Homo sapiens) (P23975 whole entry): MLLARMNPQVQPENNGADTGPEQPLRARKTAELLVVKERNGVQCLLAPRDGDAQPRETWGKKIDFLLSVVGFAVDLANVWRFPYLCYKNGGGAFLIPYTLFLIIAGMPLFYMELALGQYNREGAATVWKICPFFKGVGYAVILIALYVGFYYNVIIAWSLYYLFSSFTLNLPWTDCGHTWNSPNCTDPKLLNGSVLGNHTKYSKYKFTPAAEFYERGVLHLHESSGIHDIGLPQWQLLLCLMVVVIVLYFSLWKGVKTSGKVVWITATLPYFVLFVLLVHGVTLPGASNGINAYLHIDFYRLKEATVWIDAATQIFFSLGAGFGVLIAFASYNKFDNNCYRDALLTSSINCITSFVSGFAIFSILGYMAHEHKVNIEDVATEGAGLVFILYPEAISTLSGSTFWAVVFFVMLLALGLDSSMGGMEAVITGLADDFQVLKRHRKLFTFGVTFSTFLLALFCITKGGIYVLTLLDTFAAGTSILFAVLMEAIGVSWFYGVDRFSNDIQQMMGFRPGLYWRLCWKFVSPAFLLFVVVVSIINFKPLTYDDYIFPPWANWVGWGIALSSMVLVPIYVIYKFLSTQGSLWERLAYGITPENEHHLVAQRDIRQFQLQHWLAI
Sequence of Histamine H2 receptor (Homo sapiens) (P25021 whole entry): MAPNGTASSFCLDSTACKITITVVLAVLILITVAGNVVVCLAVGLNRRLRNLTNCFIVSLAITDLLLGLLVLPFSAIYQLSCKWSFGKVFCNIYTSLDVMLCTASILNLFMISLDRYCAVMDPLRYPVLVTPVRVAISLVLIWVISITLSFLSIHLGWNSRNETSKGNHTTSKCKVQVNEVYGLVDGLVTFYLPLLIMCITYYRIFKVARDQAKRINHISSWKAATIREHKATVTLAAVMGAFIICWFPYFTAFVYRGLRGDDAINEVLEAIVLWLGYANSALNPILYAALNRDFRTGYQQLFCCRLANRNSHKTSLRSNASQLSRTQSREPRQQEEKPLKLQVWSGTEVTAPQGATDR
Sequence of 5-hydroxytryptamine receptor 6 (Homo sapiens) (P50406 whole entry): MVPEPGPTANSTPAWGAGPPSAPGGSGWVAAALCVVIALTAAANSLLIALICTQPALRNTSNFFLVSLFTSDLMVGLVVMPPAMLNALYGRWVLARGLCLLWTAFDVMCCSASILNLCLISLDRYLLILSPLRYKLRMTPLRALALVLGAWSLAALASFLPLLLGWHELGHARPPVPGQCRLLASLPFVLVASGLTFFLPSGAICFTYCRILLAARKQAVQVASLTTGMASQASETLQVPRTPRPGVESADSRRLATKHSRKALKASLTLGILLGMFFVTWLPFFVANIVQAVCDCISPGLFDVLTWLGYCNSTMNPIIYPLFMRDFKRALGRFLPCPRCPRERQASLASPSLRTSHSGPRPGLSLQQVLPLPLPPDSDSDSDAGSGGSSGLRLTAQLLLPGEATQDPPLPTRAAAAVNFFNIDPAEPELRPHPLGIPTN
Sequence of Muscarinic acetylcholine receptor M3 (Homo sapiens) (P20309 whole entry, looked up): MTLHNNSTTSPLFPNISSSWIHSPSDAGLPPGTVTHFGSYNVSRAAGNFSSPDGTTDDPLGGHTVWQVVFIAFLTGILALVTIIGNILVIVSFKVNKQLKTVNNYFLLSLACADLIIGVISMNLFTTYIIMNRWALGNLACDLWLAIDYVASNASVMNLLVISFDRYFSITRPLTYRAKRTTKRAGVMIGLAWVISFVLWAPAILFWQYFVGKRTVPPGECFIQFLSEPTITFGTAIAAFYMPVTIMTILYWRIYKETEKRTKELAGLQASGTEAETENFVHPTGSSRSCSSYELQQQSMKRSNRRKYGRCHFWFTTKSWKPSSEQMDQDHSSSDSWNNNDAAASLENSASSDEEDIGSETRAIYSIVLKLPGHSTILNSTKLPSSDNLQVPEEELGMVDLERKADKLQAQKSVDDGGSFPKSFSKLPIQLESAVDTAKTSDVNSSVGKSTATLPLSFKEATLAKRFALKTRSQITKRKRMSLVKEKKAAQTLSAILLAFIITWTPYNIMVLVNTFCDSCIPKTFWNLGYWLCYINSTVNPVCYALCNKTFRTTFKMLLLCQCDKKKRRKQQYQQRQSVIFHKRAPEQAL

CCCNc1cc(C)nc(NCCN(C)C)n1
inhibition (Ovis aries [1]): inactive

CCNc1nc(C)cc(NCCN(C)C)n1
inhibition (Ovis aries [1]): inactive

CCNc1cc(C)nc(NCCN(C)C)n1
inhibition (Ovis aries [1]): inactive

COc1cc(CC(C)N)c(OC)cc1I (racemic)
Ki [2]: 0.0016 µM

CCCCCCCCCCCCNc1nc(C)cc(NCCN(C)C)n1
IC50 [3]: 1.4 µM
GI50 (SW480 [4]): 0.8 µM
GI50 (HT-29 [5]): 1.4 µM
GI50 [6]: 1.3 µM
GI50 (MCF7 [7]): 1.5 µM
GI50 (BE(2)-C [8]): 1.5 µM
GI50 [9]: 1.5 µM
GI50 (MIA PaCa-2 [10]): 1.5 µM
GI50 (A2780 [11]): 1.8 µM
GI50 (A-431 [12]): 1.7 µM
GI50 (NCI-H460 [13]): 2.5 µM
GI50 [14]: 1.5 µM
GI50 (DU-145 [15]): 1.9 µM
residual binding, % of control [16]: 99%
residual binding, % of control [17]: 102%
residual binding, % of control [18]: 106%
residual binding, % of control [19]: 96%
residual binding, % of control [20]: 91%
residual binding, % of control [21]: 104%
residual binding, % of control [22]: 93%
residual binding, % of control [23]: 97%
residual binding, % of control [24]: 93%
residual binding, % of control [25]: 94%
residual binding, % of control [26]: 99%
residual binding, % of control [27]: 91%
residual binding, % of control [28]: 98%
residual binding, % of control [29]: 96%
residual binding, % of control [30]: 105%

CCCCNc1nc(C)cc(NCCN(C)C)n1
inhibition (Ovis aries [1]): inactive

CCC(C)Nc1nc(C)cc(NCCN(C)C)n1 (stereo unspecified)
IC50 [3]: > 50 µM
inhibition (Ovis aries [1]): > 50%

CCCCNc1cc(C)nc(NCCN(C)C)n1
IC50 [3]: > 50 µM
inhibition (Ovis aries [1]): > 50%

CCCNc1nc(C)cc(NCCN(C)C)n1
inhibition (Ovis aries [1]): inactive

CCCCCCCCCCCCNc1nc(C)cc(Cl)n1
IC50 [3]: > 300 µM
Activity (SW480 [31]): 37%
Activity (HT-29 [32]): 56%
Activity [33]: 65%
Activity (MCF7 [34]): 53%
Activity (BE(2)-C [35]): 46%
Activity [36]: 25%
Activity (MIA PaCa-2 [37]): 42%
Activity (A2780 [38]): 63%
Activity (A-431 [39]): 25%
Activity (NCI-H460 [40]): 21%
Activity [41]: 21%
Activity (DU-145 [42]): 42%

Cc1cc(NCc2ccccc2)nc(NCCN(C)C)n1
IC50 [3]: > 50 µM
inhibition (Ovis aries [1]): > 50%

Cc1cc(NCCN(C)C)nc(NCc2ccccc2)n1
IC50 [3]: > 50 µM
inhibition (Ovis aries [1]): > 50%

CCCNc1cc(C)nc(Cl)n1
inhibition (Ovis aries [43]): inactive

CCCCNc1nc(C)cc(Cl)n1
inhibition (Ovis aries [43]): inactive

CCCCCCNc1cc(C)nc(Cl)n1
inhibition (Ovis aries [43]): inactive

Cc1cc(Cl)nc(N2CCN(C)CC2)n1
inhibition (Ovis aries [43]): inactive

Cc1cc(Cl)nc(NCc2ccccc2)n1
inhibition (Ovis aries [43]): inactive

Cc1cc(N(C)C)nc(Cl)n1
inhibition (Ovis aries [43]): inactive

Cc1cc(Cl)nc(N(C)C)n1
inhibition (Ovis aries [43]): inactive

Cc1cc(NCCN)nc(Cl)n1
inhibition (Ovis aries [43]): inactive

Cc1cc(NCCCN(C)C)nc(Cl)n1
inhibition (Ovis aries [43]): inactive

CCC(C)Nc1cc(C)nc(NCCN(C)C)n1 (stereo unspecified)
inhibition (Ovis aries [1]): inactive

Cc1cc(NCCNC(=O)OC(C)(C)C)nc(Cl)n1
inhibition (Ovis aries [43]): inactive
